Experimental data: US20230129485A1, “SYSTEM AND METHOD FOR DETERMINING MATERIAL PROPERTIES OF MOLECULAR SYSTEMS FROM AN AB-INITIO PARAMETERIZED FORCE-FIELD” (InterX, Inc., priority 2021, published 2023)
Like-named read-outs stand apart in the source and are kept apart here.

What was measured:
[1] = experimental, cited from earlier work
[2] = implicit solvent model, values received; cited from earlier work
[3] = Free energy of hydration predicted by General Amber Force Field (GAFF), from literature; conditions: Table 5; error of GAFF hydration free energy vs experiment
[4] = Table 5; free energy of hydration, AMOEBA prediction taken from literature; cited from earlier work
[5] = Table 3; CHEX/H2O partition coefficient, experimental; cited from earlier work
[6] = CHEX/H2O partition coefficient (log D) predicted with the QM-parameterized force field model (ARROW FF)
How it was run: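 Cyclohexane/water partition coefficients were predicted by molecular simulation with a QM-parameterized force field, with bonded force constants and equilibrium values fitted to MP2/aug-cc-pVTZ energies. Solutes carried neutral functional groups, and results from four independent groups were averaged.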

[7] = Free energy of hydration by Solvation Model Dielectric (SMD) implicit solvent model; conditions: absolute error vs Exp (hydration)
How it was run: (§1)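 Computed, not measured. COSMO: run in MolPro on the dataset. SMD/PCM: predicted values supplied externally. SMD, PCM, COSMO-RS restricted to the overlap with the QM-parameterized force field molecule set.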

[8] = Free energy of hydration by COSMO implicit solvent model (MolPro ver. 2012); conditions: absolute error vs Exp (hydration)
How it was run: as §1

[9] = Table 5; free energy of hydration, GAFF prediction taken from literature; cited from earlier work
[10] = Free energy of hydration predicted with the QM-parameterized force field model (ARROW FF), classical MD and PIMD simulation in a water box; conditions: for Arrow error: Table 5, error of Arrow PIMD8 hydration free energy vs experiment; for Arrow PIMD8 Error: absolute error vs Exp (hydration)
How it was run: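 Solute decoupled from solvent in a 32×32×32 Å3 water box (PME, 9 Å cutoffs), electrostatics, exchange-repulsion and dispersion switched off together over 15 lambda points with soft-coring. Steepest-descent minimization, 50 ps equilibration, 1 ns NPT production at 1 atm; classical and path-integral MD. Free energy from BAR and TI.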

[11] = Free energy of hydration predicted by polarizable AMOEBA force field, from literature; conditions: Table 5; error of AMOEBA hydration free energy vs experiment
[12] = experimental, cited from earlier work; for Exp (hydration): Table 5
[13] = Free energy of hydration by Polarizable Continuum Model (PCM); conditions: absolute error vs Exp (hydration)
How it was run: as §1

[14] = Free energy of hydration by COSMO-RS
How it was run: as §1

[15] = implicit solvent model, values received; cited from earlier work; remark: listed apart in the source
[16] = Free energy of solvation in cyclohexane predicted with the QM-parameterized force field model (ARROW FF), MD and PIMD; conditions: Table 4; for CHEX Arrow MD Error: error of MD cyclohexane solvation free energy vs experiment; for CHEX Arrow PIMD4 Error: error of PIMD4 cyclohexane solvation free energy vs experiment
Text: Cyclohexane (CHEX) is nonpolar and equilibrates relatively quickly.
Particle-Mesh Ewald (PME) algorithm was used to compute the electrostatic interactions. A 32×32×32 grid mesh and 5th power spline interpolation order can be used to compute the inverse PME sum. 9 Å cutoffs were used to compute the direct PME sum as well as the exchange and dispersion interactions. Bulk corrections were applied to account for distance cut-off of dispersion interactions. Solvation free energies were computed by decoupling the interactions between the solute and the solvent molecules. Electrostatic, exchange-repulsion and dispersion interactions were switched off simultaneously using a lambda-dependent scaling (a scaling factor power=2 was used) and a soft-coring algorithm (maximal soft-coring radius=1.5 Å, soft-coring radius scaling factor power=1). 15 lambda points unequally spaced (X=0, 0.05, 0.1, 0.2, 0.3, 0.4, 0.5, 0.6, 0.7, 0.75, 0.8, 0.85, 0.9, 0.95, 1.0) were used to decouple the solute-solvent intermolecular interactions.
In some simulations of the QM-parameterized force field molecular simulation process, energy minimization (10,000 steps) using the steepest descent algorithm was initially performed on all the simulation systems. This was followed by a 50 ps equilibration and 1 ns production runs in the isothermal-isobaric ensemble (NPT). […] Pressure was maintained at 1 atm using a MTTK barostat (relaxation time=5 ps). A Multiple Time Step (MTS) algorithm was used to integrate the equations of motion both for the classical and path-integral runs. […] The calculations were performed using the QM-parameterized force field model.
Using the QM-parameterized force field model, the QM-parameterized force field device can compute or predict the solvation free energies using both the Bennett acceptance ratio (BAR) and thermodynamic integration (TI) method with <dH/dλ> values interpolated by cubic splines.

[17] = Table 3, free energy of solvation in cyclohexane
[18] = Table 3, absolute error of MD hydration free energy vs experiment
[19] = Table 3, absolute error of PIMD8 hydration free energy vs experiment
[20] = Table 3, free energy of hydration
[21] = Table 4, solvation free energy in cyclohexane
[22] = Table 4, error of MD hydration free energy vs experiment
[23] = Table 4, error of PIMD8 hydration free energy vs experiment
[24] = Table 4, neutral amino-acid analogues
[25] = Table 3, absolute error of MD log D vs experiment
[26] = Table 3, absolute error of PIMD log D vs experiment

SMILES | CHEX Exp (solvation) [1, 17] | PCM free energy of hydration [2] | GAFF error [3] | AMOEBA [4] | Exp (log D) [5] | SMD Error [7] | COSMO/Molpro Error [8] | GAFF [9] | water Arrow MD Error [10, 18] | water Arrow PIMD8 Error [10, 19] | Arrow error [10] | Arrow PIMD8 Error [10] | AMOEBA error [11] | water Exp (hydration) [12, 20] | Exp (hydration) ([12]; free energy of hydration) | PCM Error [13] | COSMO-RS error [14] | SMD free energy of hydration [15] | log D Arrow MD Error [6, 25] | log D Arrow PIMD Error [6, 26] | other results
CCCCCCCC [Octane] | -5.63 kcal/mol | -0.30 kcal/mol | 0.25 kcal/mol | 1.74 kcal/mol | 6.25 | 0.19 kcal/mol | 3.74 kcal/mol | 3.13 kcal/mol | 1.27 kcal/mol | 0.06 kcal/mol | 0.04 kcal/mol | 0.06 kcal/mol | 1.14 kcal/mol | 2.89 kcal/mol | 2.88 kcal/mol | 3.19 kcal/mol | 0.10 kcal/mol | 2.70 kcal/mol |  |  | log D Arrow MD Error [6]: 0.50; log D Arrow PIMD Error [6]: 0.20
CC(=O)O [AceticAcid] | -2.20 kcal/mol | -4.50 kcal/mol | 0.74 kcal/mol | -5.63 kcal/mol |  | 0.99 kcal/mol | 2.47 kcal/mol | -5.95 kcal/mol | 0.19 kcal/mol | 0.34 kcal/mol | 0.34 kcal/mol | 0.34 kcal/mol | 1.06 kcal/mol | -6.69 kcal/mol | -6.69 kcal/mol | 2.19 kcal/mol | 0.22 kcal/mol | -5.70 kcal/mol |  |  | CHEX Exp (solvation) [1, 21]: -2.20 kcal/mol; water Arrow MD Error [10, 22]: 0.19 kcal/mol; water Arrow PIMD8 Error [10, 23]: 0.34 kcal/mol; CHEX Arrow MD Error [16]: 0.09 kcal/mol; CHEX Arrow PIMD4 Error [16]: 0.01 kcal/mol; water Exp (hydration) [12, 24]: -6.69 kcal/mol
CN(C)C [trimethylamine] | -2.63 kcal/mol | -1.30 kcal/mol | 0.88 kcal/mol | -2.09 kcal/mol | −0.42 | 0.70 kcal/mol | 0.30 kcal/mol | -2.32 kcal/mol | 1.04 kcal/mol | 0.02 kcal/mol | 0.02 kcal/mol | 0.02 kcal/mol | 1.11 kcal/mol | -3.20 kcal/mol | -3.20 kcal/mol | 1.90 kcal/mol | 2.55 kcal/mol | -2.50 kcal/mol |  |  | log D Arrow MD Error [6]: 0.10; log D Arrow PIMD Error [6]: 0.43
Nc1ccccc1 [Aniline] | -5.52 kcal/mol | -4.10 kcal/mol | 0.38 kcal/mol | -4.78 kcal/mol | −0.01 | 0.74 kcal/mol | 2.13 kcal/mol | -5.92 kcal/mol | 0.17 kcal/mol | 0.06 kcal/mol | 0.06 kcal/mol | 0.06 kcal/mol | 0.76 kcal/mol | -5.54 kcal/mol | -5.54 kcal/mol | 1.44 kcal/mol | 0.23 kcal/mol | -4.80 kcal/mol | 0.18 | 0.13 | 
CCN [ethylamine] | -2.13 kcal/mol | -2.80 kcal/mol | 1.36 kcal/mol | -4.33 kcal/mol | −1.74 | 0.70 kcal/mol | 1.30 kcal/mol | -3.14 kcal/mol | 1.03 kcal/mol | 0.12 kcal/mol | 0.12 kcal/mol | 0.12 kcal/mol | 0.17 kcal/mol | -4.50 kcal/mol | -4.50 kcal/mol | 1.70 kcal/mol | 0.30 kcal/mol | -3.80 kcal/mol | 0.69 | 0.08 | 
c1ccccc1 [Benzene] | -4.19 kcal/mol | -1.60 kcal/mol | 0.18 kcal/mol | -0.86 kcal/mol |  | 0.18 kcal/mol | 2.32 kcal/mol | -0.70 kcal/mol | 0.58 kcal/mol | 0.17 kcal/mol | 0.17 kcal/mol | 0.17 kcal/mol | 0.02 kcal/mol | -0.88 kcal/mol | -0.88 kcal/mol | 0.72 kcal/mol | 0.01 kcal/mol | -0.70 kcal/mol |  |  | 
CC(N)=O [Acetamide] | -3.01 kcal/mol | -6.90 kcal/mol | 1.91 kcal/mol | -9.30 kcal/mol |  | 0.71 kcal/mol | 4.11 kcal/mol | -7.80 kcal/mol | 0.87 kcal/mol | 0.06 kcal/mol | 0.06 kcal/mol | 0.06 kcal/mol | 0.41 kcal/mol | -9.71 kcal/mol | -9.71 kcal/mol | 2.81 kcal/mol | 2.55 kcal/mol | -9.00 kcal/mol |  |  | CHEX Exp (solvation) [1, 21]: -3.01 kcal/mol; water Arrow MD Error [10, 22]: 0.87 kcal/mol; water Arrow PIMD8 Error [10, 23]: 0.06 kcal/mol; CHEX Arrow MD Error [16]: 0.63 kcal/mol; CHEX Arrow PIMD4 Error [16]: 0.58 kcal/mol; water Exp (hydration) [12, 24]: -9.71 kcal/mol
Oc1ccccc1 [Phenol] | -5.56 kcal/mol | -4.00 kcal/mol | 0.95 kcal/mol | -5.05 kcal/mol | −0.78 | 1.42 kcal/mol | 0.92 kcal/mol | -5.67 kcal/mol | 1.02 kcal/mol | 0.18 kcal/mol | 0.18 kcal/mol | 0.18 kcal/mol | 1.57 kcal/mol | -6.62 kcal/mol | -6.62 kcal/mol | 2.62 kcal/mol | 0.62 kcal/mol | -5.20 kcal/mol | 0.65 | 0.21 | 
